Source: patent US11040041B2, “Method of treating pulmonary arterial hypertension” (Cipla (UK) Limited, priority 2015, dated 2021)

Experiments:
[1] = tested on: rats with monocrotaline induced pulmonary arterial hypertension; assay: Hemodynamic evaluation in anesthetized rats treated with monocrotaline to induce pulmonary arterial hypertension; type: in vivo, Sprague-Dawley rats; conditions: for RV/LV + S: Fulton's Index; for RV/LV + S / Body Weight / HR / HW/BW / Heart Wt / LV Wt / Lung Wt / MAP / Mean PAP / RV Wt / RV/BW / Systolic PAP: day 28 after monocrotaline, mean ± SEM
Procedure: The studies were conducted for Hemodynamic Evaluation of Paliperidone palmitate in Anesthetized Sprague Dawley Rats Treated with Monocrotaline to Induce Pulmonary Arterial Hypertension. Sildenafil was used as an internal control to compare the effects of Paliperidone palmitate.
Adult male Sprague-Dawley rats (287±4 g) were obtained from Charles River Laboratories (Raleigh, N.C.). Animals housed individually in a temperature/humidity controlled room with 12-hour light/dark cycles, had free access to water and food and were acclimated for one week prior to the study. Rats were randomly assigned (n=10 per group). Rats in groups 1 and 2 served as healthy controls; the remaining rats were injected subcutaneously on Day 0 with 60 mg/kg body weight monocrotaline, the toxic alkaloid of Crotalaria spectabilis, (dissolved in DMSO at a concentration of 60 mg/ml, Sigma Aldrich, St. Louis, Mo.). On days 1-21, the rats were dosed via oral gavage (2 ml/kg) with vehicle (PBS), or the test compound—Paliperidone palmitate. Rats were weighed daily, and the dosages of test compound adjusted appropriately.
Monocrotaline (MCT) is an 11-membered macrocyclic pyrrolizidine plant alkaloid. A single SQ injection into rats results in hepatic generation of toxic metabolite—MCT pyrrole. Phase II metabolism of MCT is through glutathione conjugation. Reactive metabolite is transported to lungs, injuring pulmonary vasculature.
The effects of sildenafil and Paliperidone palmitate were evaluated in rats with monocrotaline induced pulmonary arterial hypertension. Male Sprague-Dawley rats were orally administered vehicle, Paliperidone palmitate (1.25 or 3.75 mg/kg, once every day for 28 days starting on Day 1, or sildenafil (30 mg/kg, administered twice daily) (n=10 in each group). Rats received a single injection of monocrotaline (60 mg/kg, s.c.) on Study Day 1. On the twenty-eighth day following monocrotaline dosing, the rats were anesthetized with ketamine/xylazine for terminal monitoring of pulmonary and systemic arterial pressures along with heart rate.
The Table 1 gives the study design for the test article and vehicle administrations.

[2] = tested on: rats with monocrotaline induced pulmonary arterial hypertension; assay: as above; type: in vivo, Sprague-Dawley rats; conditions: 3.25 mg/kg dosing (so in the source), after 28 days
[3] = Paliperidone palmitate 1.25 mg/kg oral once daily
[4] = Paliperidone palmitate 3.75 mg/kg oral once daily
[5] = after 28 days, monocrotaline rats
[6] = Sildenafil 60 mg/kg/day bid oral

Structure (SMILES): CCCCCCCCCCCCCCCC(=O)OC1CCCn2c1nc(C)c(CCN1CCC(c3noc4cc(F)ccc34)CC1)c2=O (stereo not shown) [Paliperidone palmitate, Hexadecanoic acid 3-[2-[4-(6-fluoro-1,2-benzisoxazol-3-yl)piperidin-1-yl]ethyl]-2-methyl-4-oxo-6,7,8,9-tetrahydro-4H-pyri do[1,2-a]pyrimidin-9-yl ester]
- reduction in systolic pulmonary arterial pressure compared to the vehicle group ([1]; 1.25 mg/kg dosing, after 28 days, monocrotaline rats): 25%
- right ventricular hypertrophy (RV/LV+S, Fulton's Index) change compared to vehicle ([1]; 1.25 mg/kg, after 28 days, monocrotaline rats): −12%
- right ventricular hypertrophy (RV/LV+S, Fulton's Index) change compared to vehicle ([1]; 3.75 mg/kg, after 28 days, monocrotaline rats): −7%
- RV/LV + S [1, 3]: 0.52 ± 0.04
- RV/LV + S [1, 4]: 0.55 ± 0.06
- Body Weight [1, 3]: 0.33 ± 0.02 kg
- HR [1, 3]: 253 ± 36 bpm
- HW/BW [1, 3]: 3.94 ± 0.22
- Heart Wt [1, 3]: 1.28 ± 0.03 g
- LV Wt [1, 3]: 0.77 ± 0.01 g
- Lung Wt [1, 3]: 2.59 ± 0.13 g
- MAP [1, 3]: 54 ± 9 mm Hg
- Mean PAP [1, 3]: 34 ± 1 mm Hg
- RV Wt [1, 3]: 0.39 ± 0.02 g
- RV/BW [1, 3]: 1.22 ± 0.10
- Systolic PAP [1, 3]: 45 ± 3 mm Hg
- Body Weight [1, 4]: 0.33 ± 0.02 kg
- HR [1, 4]: 312 ± 12 bpm
- HW/BW [1, 4]: 3.92 ± 0.21
- Heart Wt [1, 4]: 1.28 ± 0.06 g
- LV Wt [1, 4]: 0.73 ± 0.03 g
- Lung Wt [1, 4]: 2.23 ± 0.04 g
- MAP [1, 4]: 68 ± 5 mm Hg
- Mean PAP [1, 4]: 39 ± 3 mm Hg
- RV Wt [1, 4]: 0.40 ± 0.03 g
- RV/BW [1, 4]: 1.22 ± 0.12
- Systolic PAP [1, 4]: 48 ± 3 mm Hg
- differences in heart rate compared to vehicle [1, 5]: No substantive differences
- differences in mean arterial pressure compared to vehicle [1, 5]: No substantive differences
- decrease in hypertrophy, RV (wt) corrected by body weight ([1]; at either dose (1.25 or 3.75 mg/kg), after 28 days, monocrotaline rats): 19%
- development of PAH in the rat monocrotaline (MCT) model ([1]; daily oral doses, text says three weeks): prevent the development of PAH
- reduction in systolic pulmonary arterial pressure compared to the vehicle group [2]: 20%

Structure (SMILES): CCCc1nn(C)c2c(=O)[nH]c(-c3cc(S(=O)(=O)N4CCN(C)CC4)ccc3OCC)nc12 [Sildenafil]
- RV/LV + S [1, 6]: 0.51 ± 0.03
- Body Weight [1, 6]: 0.32 ± 0.01 kg
- HR [1, 6]: 278 ± 21 bpm
- HW/BW [1, 6]: 3.89 ± 0.17
- Heart Wt [1, 6]: 1.24 ± 0.02 g
- LV Wt [1, 6]: 0.74 ± 0.02 g
- Lung Wt [1, 6]: 2.36 ± 0.13 g
- MAP [1, 6]: 69 ± 5 mm Hg
- Mean PAP [1, 6]: 38 ± 6 mm Hg
- RV Wt [1, 6]: 0.38 ± 0.02 g
- RV/BW [1, 6]: 1.19 ± 0.09
- Systolic PAP [1, 6]: 46 ± 7 mm Hg
- differences in heart rate compared to vehicle [1, 5]: No substantive differences
- differences in mean arterial pressure compared to vehicle [1, 5]: No substantive differences
- decrease in hypertrophy, RV (wt) corrected by body weight ([1]; sildenafil (30 mg/kg twice daily), after 28 days, monocrotaline rats): 21%
- right ventricular hypertrophy (RV/LV+S, Fulton's Index) change compared to vehicle ([1]; sildenafil cohort (30 mg/kg twice daily), after 28 days, monocrotaline rats): −14%
- reduction of SPAP compared to the vehicle group ([1]; sildenafil group (30 mg/kg twice daily), after 28 days, monocrotaline rats): 23%
